Assay [1] concerns L-FABP. An excerpt: All protocols were approved by the Institutional Animal Care and Use Committee (IACUC) at the University of Colorado Anschutz Medical Campus. Male C57Bl/6J mice were fed a modified Lieber-DeCarli Diet (BioServ, Frenchtown, NJ) consisting of 45% fat-derived calories and 15% protein-derived calories with the remaining caloric content derived from either ethanol or maltose-dextrin. Mice were fed for a period of 6 weeks according to previous laboratory studies, [20]. At termination, the liver was harvested for whole tissue and histological evaluation as previously described, [21]. Subcellular fractions were isolated from whole liver tissue using sucrose gradient centrifugation.
200 ug of whole cell homogenates from both control and ethanol mice (n = 6/group) were incubated with 5 ug of mouse monoclonal ubiquitin antibody (Abcam, cat# ab411) for 2 hours at 4°C on a rotator to allow ubiquitin protein to bind to antibody. 100 ul of a 50% Protein G slurry (prepared and stored in 0.02% sodium azide and PBS, pH 7.4) was added to the reaction and incubated at 4°C rotating overnight. Samples were washed 5×5 minutes in PBST (PBS +[…]) and denatured in SDS-PAGE loading buffer at 95°C for 5 minutes. Immunoprecipitated protein was separated via SDS-PAGE and transferred to PVDF, and immunoblotted for L-FABP (Abcam, cat # 7847). Density of ubiquitinated bands were normalized to levels of L-FABP/β-Actin determined by immunoblotting.
Total RNA was isolated from […] of frozen tissue from control and ethanol-fed mice (n = 3) using RNeasy Mini Kits (Qiagen,Valencia, CA).

In another assay the test system is FABP1. As to conditions: 4 week ramped ethanol feeding regimen; cited from earlier work.
Assay [2] has as its system L-FABP. Conditions: following ethanol consumption in rats; cited from earlier work.

Consider one molecule from paper PMC3368874, “Characterization of 4-HNE Modified L-FABP Reveals Alterations in Structural and Functional Dynamics” (PLoS ONE, 2012).

Bounds are passed on as bounds.

Regarding `CCO` [ethanol], the “poly-ubiquitinated L-FABP normalized to total L-FABP” value with L-FABP [1] (co-immunoprecipitation, ethanol diet 6 weeks, P<0.001, n = 6) is “significant increase”. Moreover, the “decrease in FABP1 mRNA (RT-PCR)” value with L-FABP [1] (ethanol diet 6 weeks versus control) is reported as 1.6 fold. Besides, the “relative expression of FABP1” value with L-FABP [1] (ethanol livers, control 1.00±0.084, P<0.05, n = 3) amounted to 0.617±0.069. Moreover, in the assay with L-FABP [1] (whole cell lysates, ethanol diet 6 weeks versus control, P<0.001, n = 6), the “reduction in L-FABP protein (1D Western Blot)” value is ~80%. For the same molecule, the “decrease in the mRNA of FABP1” value in the assay with FABP1 was > 50%. Besides, the “decrease in expression of L-FABP” value with L-FABP [2] was ~30%.
